Test results: patent US20260273252A1, “GROOVED MICRONEEDLES FOR PASSIVE AND ACTIVE DRUG DELIVERY” (Trustees of Tufts College, priority 2023, published 2026)

Experiments:
[1] = test system: PTSD symptoms in patients; conditions: cited from earlier work
[2] = test system: thermal nociception in rodents; test: Hot plate test, noxious thermal stimulus of 50 degrees Celsius (pilot studies); type: in vivo; conditions: for antinociceptive effects on thermal nociception (latency to lick a hind paw): 10 mg/kg i.p. for three consecutive days, hot plate 50 degrees Celsius, males, 24, 48 and 72 hours post treatment; for block of the antinociceptive effects of (2R,6R)-HNK by antagonist pretreatment: hot plate, given with (2R,6R)-HNK
Procedure: In addition, pilot studies were conducted to assess the antinociceptive potential of (2R,6R)-HNK (10 mg/kg intraperitoneal (i.p.) injection administered for three consecutive days) in response to a noxious thermal stimulus of 50 degrees Celsius on the hot plate apparatus. The latency to lick a hind paw was measured in males before and after (2R,6R)-HNK treatment at 24, 48, and 72 hours post treatment.

gait function = test: Forced swim test, gait function; type: in vivo; conditions: compared with ketamine
[3] = test system: rodent model for CRPS and postoperative pain; conditions: cited from earlier work
[4] = test system: mice with a spinal nerve injury; conditions: 24 hours following a single injection; cited from earlier work
[5] = 6 times over a 2-week period, 0.5 mg/kg 40-min infusions, treatment resistant subjects

CNC1(c2ccccc2Cl)CCCCC1=O (racemic) [ketamine]
median time to relapse after the cessation of treatment [1, 5]: 41 days | start of persistent remission following the first infusion [1, 5]: ≥ 24 h | persistence of resolution of PTSD symptoms before re-emergence ([1]; single dose, adults and children): over one | patient health questionnaire score after treatment ([1]; six 1-hour infusions, mean final dose 163.83 mg, reduced from 18.5): 9.5 | PTSD checklist for DSM-5 after treatment ([1]; six 1-hour infusions, mean final dose 163.83 mg, reduced from 56.2): 31.3

N[C@@]1(c2ccccc2Cl)CCC[C@@H](O)C1=O [(2R,6R)-HNK, 2R,6R-hydroxynorketamine]
antinociceptive effects on thermal nociception (latency to lick a hind paw) [2]: long-lasting antinociceptive effects | impairment of gait function (gait function): does not impair gait function significantly | persistence of analgesic effects following administration [3]: up to five | antinociceptive effects after a single injection [4]: Antinociceptive effects

N[C@]1(c2ccccc2Cl)CCC[C@H](O)C1=O [(2S,6S)-HNK]
antinociceptive effects on thermal nociception (latency to lick a hind paw) [2]: not extended

NS(=O)(=O)c1cccc2c1c([N+](=O)[O-])cc1nc(O)c(O)nc12 [NBQX]
block of the antinociceptive effects of (2R,6R)-HNK by antagonist pretreatment [2]: effectively block

O=C1CC[C@@]2(O)[C@H]3Cc4ccc(O)c5c4[C@@]2(CCN3CC2CC2)[C@H]1O5 [naltrexone]
block of the antinociceptive effects of (2R,6R)-HNK by antagonist pretreatment [2]: failed to block
